# Experimental data taken from article PMC4172838 (Malaria Journal, 2014).
# Assays:
# MRP3 = tested on: T1, MRP3; experiment: Vesicular transport assay, MRP3-mediated E217βG uptake in HEK293 membrane vesicles; format: biochemical, human; details: 100 μM compound; E217βG 150 nM; solvent control = 100% transport
# T1 construct: made in house; host or cells: HEK293 cells transduced with baculovirus; isolated membrane vesicles
# Description: Some sequences did hold silent mutations of described polymorphisms.
# [1] = tested on: T2, bile salt export pump (BSEP/ABCB11); experiment: Vesicular transport assay, BSEP-mediated taurocholic acid uptake in HEK293 membrane vesicles; format: biochemical, human; details: 100 μM compound; taurocholic acid 1 μM; solvent control = 100% transport
# T2 construct: made in house; host or cells: HEK293 cells transduced with baculovirus; isolated membrane vesicles
# Protocol: Cells were harvested three days post transduction by a 5-min centrifugation step at 3,000 g. Cells were resuspended in ice-cold hypotonic buffer (0.5 mM sodium phosphate, 0.1 mM EDTA, pH 7.0) containing protease inhibitors (100 mM phenylmethylsulfonyl fluoride, 5 mg/ml aprotinin, 5 mg/ml leupeptin, 1 mg/ml pepstatin and 1 mg/ml E-64) and shaken at 4°C for 30 min. This lysate was centrifuged 100,000 xg for 30 min at 4°C, after which the pellet was homogenized in ice-cold TS buffer (10 mM Tris-HEPES and 250 mM sucrose, pH 7.4) supplemented with protease inhibitors described before using a tight-fitting Dounce homogenizer for 25 strokes. Two subsequent centrifugation steps at 4°C of firstly 20 min at 4,000 g followed by supernatant centrifugation for 60 min at 100,000 g ensured harvesting of the membrane fraction. The pellet was resuspended in ice-cold protease free TS buffer and passed 25 times through a 27-gauge needle to enhance membrane vesicle formation. Protein concentration in these vesicles was determined using the Bio-Rad protein assay, vesicles were flash-frozen in N2 and stored at -80°C.
# A rapid filtration technique that has been described earlier was applied to evaluate uptake of transporter specific substrates into the vesicles; NMQ for P-gp, E1S for BCRP, E217βG for MRP1-4 and TCA for BSEP [20]. Briefly, 0.015-0.15 μCi of labelled substrate was combined with unlabelled substrates to a concentration of 0.1-1 μM in a 30 μL reaction mixture with 4 mM ATP, 10 mM MgCl2 and 7.5 μg total protein membrane vesicles in TS buffer. Transport was allowed by transfer of the plates to 37°C during 1–5 min, a time-point within the linear phase of time-dependent transport, as previously determined [15–19]. Hereafter, the reaction was rapidly stopped by placing the plates back on ice and the addition of 150 μL ice-cold TS buffer. Samples were subsequently transferred to a 96-well filter plate that had been pre-incubated with TS buffer, and filtered using a multiscreen HTS-vacuum manifold filtration device (Millipore). […] Radioactive signal on the filters was determined by liquid scintillation counting. […]
# All concentrations were tested in duplicates or triplicates in two individual biological replicates containing vesicles of independent transductions. […] IC50 values were determined by nonlinear regression analysis of (log) inhibitor-response curves with variable slope. […]
# MRP2 = tested on: T3, MRP2; experiment: Vesicular transport assay, MRP2-mediated E217βG uptake in HEK293 membrane vesicles; format: biochemical, human; details: 100 μM compound; E217βG 150 nM; solvent control = 100% transport
# T3 construct: made in house; host or cells: HEK293 cells transduced with baculovirus; isolated membrane vesicles
# Protocol: (§1) Human P-gp, BCRP, BSEP and MRP1-4 had previously been cloned into the Gateway pDONR221 vector. […] Gateway cloning was used to transfer the genes into a VSV-G improved pFastBacDual vector for mammalian cell transduction. The production of baculovirus was executed according to the Invitrogen Bac-to-Bac manual.
# (§2) HEK293 cells were grown to 40% confluency in Dulbecco’s modified Eagle’s medium-GlutaMAX-I containing 10% foetal calf serum at 5% CO2 in 500 cm^2 triple flasks. […]
# (§3) Cells were harvested three days post transduction by a 5-min centrifugation step at 3,000 g. […] Protein concentration in these vesicles was determined using the Bio-Rad protein assay, vesicles were flash-frozen in N2 and stored at -80°C.
# (§4) A rapid filtration technique that has been described earlier was applied to evaluate uptake of transporter specific substrates into the vesicles; NMQ for P-gp, E1S for BCRP, E217βG for MRP1-4 and TCA for BSEP [20]. […] Transport was allowed by transfer of the plates to 37°C during 1–5 min, a time-point within the linear phase of time-dependent transport, as previously determined. […] Radioactive signal on the filters was determined by liquid scintillation counting. […]
# (§5) In the first screen, all anti-malarial compounds were added to the reaction mixture to evaluate transport inhibition at a concentration of 100 μM. […] Results were depicted and statistically analysed using Graphpad Prism, version 5.03. […]
# [2] = cited from earlier work
# [3] = biological target: T4, breast cancer resistance protein (BCRP/ABCG2) (Homo sapiens, UniProt Q9UNQ0); experiment: Vesicular transport assay, BCRP-mediated estrone sulphate uptake in HEK293 membrane vesicles; details: for BCRP-mediated estrone sulphate transport, percentage of solvent control: 100 μM compound, estrone sulphate 74 nM, solvent control = 100% transport
# T4 sequence (Q9UNQ0 1-655): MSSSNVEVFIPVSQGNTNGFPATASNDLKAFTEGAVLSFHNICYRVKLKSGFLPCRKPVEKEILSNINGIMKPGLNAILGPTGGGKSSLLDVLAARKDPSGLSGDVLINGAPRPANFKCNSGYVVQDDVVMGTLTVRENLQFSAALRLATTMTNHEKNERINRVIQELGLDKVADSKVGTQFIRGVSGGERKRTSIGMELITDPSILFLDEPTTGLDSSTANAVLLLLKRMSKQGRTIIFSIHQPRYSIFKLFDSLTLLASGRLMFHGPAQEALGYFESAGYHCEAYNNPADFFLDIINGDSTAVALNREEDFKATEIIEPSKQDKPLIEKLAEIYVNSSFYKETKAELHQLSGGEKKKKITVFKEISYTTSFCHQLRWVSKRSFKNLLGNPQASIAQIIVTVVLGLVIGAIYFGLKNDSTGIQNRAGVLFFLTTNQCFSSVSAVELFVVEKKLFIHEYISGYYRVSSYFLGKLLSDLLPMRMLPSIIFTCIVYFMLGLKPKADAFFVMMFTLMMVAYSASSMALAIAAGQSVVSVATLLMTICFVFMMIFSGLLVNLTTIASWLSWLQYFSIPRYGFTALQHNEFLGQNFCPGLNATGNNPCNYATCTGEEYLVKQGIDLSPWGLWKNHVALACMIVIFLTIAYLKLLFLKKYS
# Protocol: as §1
# (§6) HEK293 cells were grown to 40% confluency in Dulbecco’s modified Eagle’s medium-GlutaMAX-I containing 10% foetal calf serum at 5% CO2 in 500 cm^2 triple flasks. Culture medium was removed and 25 mL of medium combined with 10 mL virus was added and incubated at RT for 20 min, followed by the addition of another 40 mL of complete medium including 5 mM sodium butyrate to enhance protein expression.
# (§7) Cells were harvested three days post transduction by a 5-min centrifugation step at 3,000 g. Cells were resuspended in ice-cold hypotonic buffer (0.5 mM sodium phosphate, 0.1 mM EDTA, pH 7.0) containing protease inhibitors ([…] phenylmethylsulfonyl fluoride, 5 mg/ml aprotinin, 5 mg/ml leupeptin, 1 mg/ml pepstatin and 1 mg/ml E-64) and shaken at 4°C for 30 min. This lysate was centrifuged 100,000 xg for 30 min at 4°C, after which the pellet was homogenized in ice-cold TS buffer (10 mM Tris-HEPES and 250 mM sucrose, pH 7.4) supplemented with protease inhibitors described before using a tight-fitting Dounce homogenizer for 25 strokes. Two subsequent centrifugation steps at 4°C of firstly 20 min at 4,000 g followed by supernatant centrifugation for 60 min at 100,000 g ensured harvesting of the membrane fraction. The pellet was resuspended in ice-cold protease free TS buffer and passed 25 times through a 27-gauge needle to enhance membrane vesicle formation. Protein concentration in these vesicles was determined using the Bio-Rad protein assay, vesicles were flash-frozen in N2 and stored at -80°C.
# (§8) A rapid filtration technique that has been described earlier was applied to evaluate uptake of transporter specific substrates into the vesicles; NMQ for P-gp, E1S for BCRP, E217βG for MRP1-4 and TCA for BSEP [20]. Briefly, 0.015-0.15 μCi of labelled substrate was combined with unlabelled substrates to a concentration of 0.1-1 μM in a 30 μL reaction mixture with 4 mM ATP, 10 mM MgCl2 and 7.5 μg total protein membrane vesicles in TS buffer. Transport was allowed by transfer of the plates to 37°C during 1–5 min, a time-point within the linear phase of time-dependent transport, as previously determined. Hereafter, the reaction was rapidly stopped by placing the plates back on ice and the addition of 150 μL ice-cold TS buffer. Samples were subsequently transferred to a 96-well filter plate that had been pre-incubated with TS buffer, and filtered using a multiscreen HTS-vacuum manifold filtration device (Millipore). Filters were washed and extracted, after which 2 mL scintillation fluid was added to each filter. Radioactive signal on the filters was determined by liquid scintillation counting. Negative controls included eYFP-transduced vesicles and AMP instead of ATP in the reaction mixture.
# In the first screen, all anti-malarial compounds were added to the reaction mixture to evaluate transport inhibition at a concentration of 100 μM. […] When ATP-dependent uptake was reduced more than 66.7%, the compound was considered a potential inhibitor, and multiple concentrations were tested in the reaction mixture to determine the IC50 value. All concentrations were tested in duplicates or triplicates in two individual biological replicates containing vesicles of independent transductions. Results were depicted and statistically analysed using Graphpad Prism, version 5.03. IC50 values were determined by nonlinear regression analysis of (log) inhibitor-response curves with variable slope.
# MRP1 = tested on: T5, MRP1; experiment: Vesicular transport assay, MRP1-mediated E217βG uptake in HEK293 membrane vesicles; format: biochemical, human; details: 100 μM compound; E217βG 150 nM; solvent control = 100% transport
# T5 construct: made in house; host or cells: HEK293 cells transduced with baculovirus; isolated membrane vesicles
# Protocol: as §1, §2, §3, §4, §5
# [4] = biological target: P-glycoprotein (P-gp/ABCB1) (Homo sapiens, UniProt P08183); experiment: Vesicular transport assay, P-gp-mediated NMQ uptake in HEK293 membrane vesicles; details: for P-gp-mediated NMQ transport, percentage of solvent control: 100 μM compound, NMQ 7 nM radio-labelled + 90 nM unlabelled, solvent control = 100% transport
# P-glycoprotein (P-gp/ABCB1), sequence (P08183 whole entry): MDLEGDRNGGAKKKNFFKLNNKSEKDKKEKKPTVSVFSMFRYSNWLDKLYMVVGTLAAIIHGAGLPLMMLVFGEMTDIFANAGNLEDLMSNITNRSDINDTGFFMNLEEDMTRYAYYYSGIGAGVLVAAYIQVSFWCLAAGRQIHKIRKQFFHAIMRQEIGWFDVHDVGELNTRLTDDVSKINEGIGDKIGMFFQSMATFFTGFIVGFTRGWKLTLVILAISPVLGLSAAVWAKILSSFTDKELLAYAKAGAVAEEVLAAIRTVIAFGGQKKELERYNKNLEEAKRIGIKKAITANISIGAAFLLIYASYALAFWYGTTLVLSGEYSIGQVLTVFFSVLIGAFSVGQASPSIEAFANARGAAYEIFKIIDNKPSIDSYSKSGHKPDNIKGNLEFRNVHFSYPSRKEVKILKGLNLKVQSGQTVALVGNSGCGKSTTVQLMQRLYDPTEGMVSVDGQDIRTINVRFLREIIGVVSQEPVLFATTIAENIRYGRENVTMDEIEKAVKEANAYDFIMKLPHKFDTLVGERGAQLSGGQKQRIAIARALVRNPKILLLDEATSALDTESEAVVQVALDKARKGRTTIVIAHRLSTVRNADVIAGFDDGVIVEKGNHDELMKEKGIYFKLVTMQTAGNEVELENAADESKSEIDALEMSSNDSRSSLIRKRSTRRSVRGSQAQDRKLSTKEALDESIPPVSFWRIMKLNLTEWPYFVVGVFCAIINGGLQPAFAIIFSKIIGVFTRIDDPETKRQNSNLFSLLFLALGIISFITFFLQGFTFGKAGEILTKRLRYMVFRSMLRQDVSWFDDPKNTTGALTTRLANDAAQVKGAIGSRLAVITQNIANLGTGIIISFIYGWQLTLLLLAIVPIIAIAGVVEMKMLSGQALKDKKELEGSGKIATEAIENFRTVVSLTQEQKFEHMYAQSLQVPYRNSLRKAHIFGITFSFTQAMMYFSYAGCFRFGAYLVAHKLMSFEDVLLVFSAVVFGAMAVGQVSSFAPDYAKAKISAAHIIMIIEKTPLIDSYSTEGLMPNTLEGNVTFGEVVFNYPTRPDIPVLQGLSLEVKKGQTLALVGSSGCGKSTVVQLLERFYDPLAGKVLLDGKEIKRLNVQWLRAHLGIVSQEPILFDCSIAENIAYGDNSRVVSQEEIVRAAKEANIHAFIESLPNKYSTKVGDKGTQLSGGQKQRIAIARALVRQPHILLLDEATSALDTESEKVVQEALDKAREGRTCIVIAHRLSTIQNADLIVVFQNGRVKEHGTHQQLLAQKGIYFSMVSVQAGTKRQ
# Protocol: as §1, §6, §7, §8
# In the first screen, all anti-malarial compounds were added to the reaction mixture to evaluate transport inhibition at a concentration of 100 μM. […] Results were depicted and statistically analysed using Graphpad Prism, version 5.03. IC50 values were determined by nonlinear regression analysis of (log) inhibitor-response curves with variable slope.
# BCRP = details: cited from earlier work; for IC50: described as BCRP inhibitors, not substrates, read-out: IC50 of BCRP inhibition
# [5] = design: method as in PMID 21600016; details: 12-hour measurement interval; co-administration with ATO/PG (250/100 mg) prophylaxis, one HIV patient; cited from earlier work
# [6] = daily prophylactic dose of 250 mg
compound,measurement,setting,value
"C[C@@H]1CC[C@H]2[C@@H](C)C(=O)O[C@@H]3O[C@@]4(C)CC[C@@H]1[C@]32OO4 [ART, artemisinin]","MRP3-mediated estradiol 17-β-D glucuronide transport, percentage of solvent control",MRP3,122%
same,"BSEP-mediated taurocholic acid transport, percentage of solvent control",[1],117%
same,"MRP2-mediated estradiol 17-β-D glucuronide transport, percentage of solvent control",MRP2,151%
"O=C1C(O)=C([C@H]2CC[C@H](c3ccc(Cl)cc3)CC2)C(=O)c2ccccc21 [ATO, atovaquone]",Maximal blood plasma concentration,[2]; [6],around 14 μM
same,"Maximal blood plasma concentration, range",[2]; [6],8 to 26 µM
same,IC50,[3],0.23 µM
same,"BCRP-mediated estrone sulphate transport, percentage of solvent control",[3],22%
same,"BSEP-mediated taurocholic acid transport, percentage of solvent control",[1],54%
same,"MRP1-mediated estradiol 17-β-D glucuronide transport, percentage of solvent control",MRP1,141%
same,"MRP2-mediated estradiol 17-β-D glucuronide transport, percentage of solvent control",MRP2,162%
"CCN(CC)CCCC(C)Nc1ccnc2cc(Cl)ccc12 (stereo not shown) [CQ, chloroquine]","BCRP-mediated estrone sulphate transport, percentage of solvent control",[3],69%
same,"P-gp-mediated NMQ transport, percentage of solvent control",[4],50%
"C[C@H]1[C@@H](O)O[C@@H]2O[C@@]3(C)CC[C@H]4[C@H](C)CC[C@@H]1[C@@]24OO3 [DHA, dihydroartemisinin]","MRP3-mediated estradiol 17-β-D glucuronide transport, percentage of solvent control",MRP3,121%
same,"BCRP-mediated estrone sulphate transport, percentage of solvent control",[3],70%
same,"BSEP-mediated taurocholic acid transport, percentage of solvent control",[1],114%
same,"P-gp-mediated NMQ transport, percentage of solvent control",[4],112%
"CCCCN(CCCC)CC(O)c1cc(Cl)cc2c1-c1ccc(Cl)cc1/C2=C/c1ccc(Cl)cc1 (stereo not shown) [L, lumefantrine]","BCRP-mediated estrone sulphate transport, percentage of solvent control",[3],44%
"OC(c1cc(C(F)(F)F)nc2c(C(F)(F)F)cccc12)C1CCCCN1 (stereo not shown) [MQ, mefloquine]","MRP3-mediated estradiol 17-β-D glucuronide transport, percentage of solvent control",MRP3,70%
same,IC50,[3],18 µM
same,"BCRP-mediated estrone sulphate transport, percentage of solvent control",[3],8.5%
same,"BSEP-mediated taurocholic acid transport, percentage of solvent control",[1],72%
same,IC50,[4],72 µM
same,"P-gp-mediated NMQ transport, percentage of solvent control",[4],30%
same,"MRP1-mediated estradiol 17-β-D glucuronide transport, percentage of solvent control",MRP1,50%
"[H]/N=C(\N/C(=N/[H])Nc1ccc(Cl)cc1)NC(C)C [PG, proguanil]",IC50,[3],118 µM
same,"BCRP-mediated estrone sulphate transport, percentage of solvent control",[3],36%
same,"P-gp-mediated NMQ transport, percentage of solvent control",[4],76%
"C=C[C@H]1C[N@@]2CC[C@H]1C[C@H]2[C@H](O)c1ccnc2ccc(OC)cc12 [Q, quinine]",Maximal plasma concentration,[2]; seven-day regimen of 10 mg/kg oral dose three times daily of quinine sulphate,30 µM
COC(=O)N[C@H](C(=O)N[C@@H](Cc1ccccc1)[C@@H](O)CN(Cc1ccc(-c2ccccn2)cc1)NC(=O)[C@@H](NC(=O)OC)C(C)(C)C)C(C)(C)C [atazinavir],BCRP-mediated transport inhibition (in words),BCRP,inhibitors of BCRP-mediated transport
O=C1Nc2ccc(Cl)cc2[C@@](C#CC2CC2)(C(F)(F)F)O1 [efavirenz],BCRP-mediated transport inhibition (in words),BCRP,inhibitors of BCRP-mediated transport
Cc1cc(C#N)cc(C)c1Oc1nc(Nc2ccc(C#N)cc2)nc(N)c1Br [etravirine],IC50,BCRP,1 µM
same,Increase of AUC,[5],55%
Cc1cccc(C)c1OCC(=O)N[C@@H](Cc1ccccc1)[C@@H](O)C[C@H](Cc1ccccc1)NC(=O)[C@H](C(C)C)N1CCCNC1=O [lopinavir],BCRP-mediated transport inhibition (in words),BCRP,inhibitors of BCRP-mediated transport
Cc1nnc(C(=O)NC(C)(C)c2nc(C(=O)NCc3ccc(F)cc3)c(O)c(=O)n2C)o1 [raltegravir],BCRP inhibition (in words),BCRP,do not inhibit BCRP
CC(C)(C)NC(=O)[C@@H]1C[C@@H]2CCCC[C@@H]2CN1C[C@@H](O)[C@H](Cc1ccccc1)NC(=O)[C@H](CC(N)=O)NC(=O)c1ccc2ccccc2n1 [saquinavir],IC50,BCRP,19.5 µM
same,Increase of AUC,[5],274%
maraviroc,BCRP inhibition (in words),BCRP,do not inhibit BCRP
